Data: US9556160B2, “Guanidine compound” (Astellas Pharma Inc., priority 2011, dated 2017)

What was measured:
[1] = biological target: human VAP-1 enzyme (SSAO) (Homo sapiens (Human), UniProt Q16853); test: Inhibitory effect on human VAP-1 enzyme (SSAO) activity, radiochemistry-enzymatic assay with 14C-benzylamine; type: biochemical; details: CHO-expressed human VAP-1, 14C-benzylamine 1×10^−5 mol/L
Procedure: (§1) After homogenizing CHO (Chinese Hamster Ovary) cells stably expressing a human VAP-1 enzyme (SSAO) in a 50 mM phosphate buffer containing 1% NP-40, an enzyme suspension was obtained by taking the supernatant obtained by centrifugation. The enzyme suspension was preincubated with the compound of the present invention in a 96-well microplate at room temperature for 30 minutes. Subsequently, the enzyme suspension was incubated with ^14C-benzylamine (a final concentration of 1×10^−5 mol/L) to a final volume of […] at 37° C. for 1 hour. The enzymatic reaction was stopped by the addition of 2 mol/L (50 pt) of citric acid.

[2] = biological target: rat VAP-1 enzyme (SSAO) (Rattus norvegicus (Rat), UniProt O08590); test: Inhibitory effect on rat VAP-1 enzyme (SSAO) activity, radiochemistry-enzymatic assay with 14C-benzylamine; type: biochemical; details: CHO-expressed rat VAP-1, 14C-benzylamine 1×10^−5 mol/L
Sequence of rat VAP-1 enzyme (SSAO) (O08590 whole entry): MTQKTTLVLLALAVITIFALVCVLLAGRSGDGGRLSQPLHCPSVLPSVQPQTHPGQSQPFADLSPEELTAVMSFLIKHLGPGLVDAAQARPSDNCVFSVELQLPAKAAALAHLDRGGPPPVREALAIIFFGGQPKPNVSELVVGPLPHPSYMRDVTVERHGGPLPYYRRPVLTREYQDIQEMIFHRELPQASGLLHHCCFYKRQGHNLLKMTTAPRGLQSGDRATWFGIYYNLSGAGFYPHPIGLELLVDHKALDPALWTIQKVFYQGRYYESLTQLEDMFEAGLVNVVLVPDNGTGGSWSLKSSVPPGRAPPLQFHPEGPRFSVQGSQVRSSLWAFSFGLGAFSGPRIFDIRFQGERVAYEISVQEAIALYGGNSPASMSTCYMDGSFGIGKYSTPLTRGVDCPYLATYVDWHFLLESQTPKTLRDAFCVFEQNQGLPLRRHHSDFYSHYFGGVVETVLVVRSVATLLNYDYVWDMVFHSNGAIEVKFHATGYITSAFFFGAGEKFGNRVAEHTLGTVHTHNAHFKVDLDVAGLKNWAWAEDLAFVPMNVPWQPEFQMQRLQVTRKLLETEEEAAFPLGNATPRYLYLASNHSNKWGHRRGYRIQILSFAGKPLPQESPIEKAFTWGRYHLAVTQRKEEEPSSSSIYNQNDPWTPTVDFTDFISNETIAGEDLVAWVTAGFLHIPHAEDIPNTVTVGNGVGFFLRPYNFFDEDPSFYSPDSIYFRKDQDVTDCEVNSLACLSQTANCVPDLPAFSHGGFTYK
Procedure: as §1, with “rat” for “human”, “μL)” for “pt)”, “acid. The oxidation products were extracted directly in a 200 μL toluene scintillator, and the radioactivity was measured with a scintillation spectrometer.” for “acid.”

[3] = system: VAP-1 enzyme (SSAO) activity in rat plasma; test: Inhibitory effect on rat VAP-1 enzyme (SSAO) activity in rat plasma after oral administration; type: in vivo, Wistar male rats; details: rat plasma VAP-1 activity, oral 0.3 mg/kg; for Inhibition Ratio (%) 1 h: 1 h after administration; for Inhibition Ratio (%) 3 h: 3 h after administration; for Inhibition Ratio (%) 6 h: 6 h after administration; for Inhibition Ratio (%) 24 h: 24 h after administration; for Inhibition Ratio (%) 12 h: 12 h after administration
Procedure: Eight-week to twelve-week Wistar male rats were fasted for 20 hours, and orally administered with a test drug ([…]). Heparin blood collection from the tail vein was performed immediately before the administration, and at 1 h, 3 h, 6 h, 12 h, or 24 h after the administration. The resulting blood was subjected to centrifugation at 14000 rpm for 5 minutes to separate plasma, and the VAP-1 enzyme activity in the resulting plasma was measured by a radio-enzyme assay method.
For the radio-enzyme assay method, ^14C-benzylamine which is a synthetic substrate (10 μM) was reacted with the resulting plasma at 37° C., and the resulting metabolite was extracted with a mixture of toluene/ethyl acetate. The radioactivity was measured and taken as a VAP-1 enzyme activity in the plasma. The effect of the test drug was calculated from the inhibitory ratio (%) of the VAP-1 activity after the administration of the test drug relative to the VAP-1 activity in the plasma immediately before the administration.

[4] = system: albuminuria in STZ-treated rats; test: Effect on albuminuria in rats with diabetes mellitus (STZ); type: in vivo, SD rats; details: oral 0.3 mg/kg once daily, after 4 weeks; for amount of urinary albumin excretion: 24-hour urine
Procedure: Seven-to eight-week SD rats (having weights up to 200 to 250 g during fasting) were used and fasted for 20 hours, and then intraperitoneally administered with 60 mg/ml/kg of streptozotocin (STZ) prepared with a 2 mmol/l citric acid buffer (pH 4.5). At the same time, the control rats were injected with the same amount of a 2 mmol/l citric acid buffer (pH 4.5).
The test substance was given daily for 4 weeks after the treatment with STZ. After 4 weeks of the treatment with the test substance, 24-hour urine collection was performed using metabolic cages.

Sequence of human VAP-1 enzyme (SSAO) (Q16853 whole entry): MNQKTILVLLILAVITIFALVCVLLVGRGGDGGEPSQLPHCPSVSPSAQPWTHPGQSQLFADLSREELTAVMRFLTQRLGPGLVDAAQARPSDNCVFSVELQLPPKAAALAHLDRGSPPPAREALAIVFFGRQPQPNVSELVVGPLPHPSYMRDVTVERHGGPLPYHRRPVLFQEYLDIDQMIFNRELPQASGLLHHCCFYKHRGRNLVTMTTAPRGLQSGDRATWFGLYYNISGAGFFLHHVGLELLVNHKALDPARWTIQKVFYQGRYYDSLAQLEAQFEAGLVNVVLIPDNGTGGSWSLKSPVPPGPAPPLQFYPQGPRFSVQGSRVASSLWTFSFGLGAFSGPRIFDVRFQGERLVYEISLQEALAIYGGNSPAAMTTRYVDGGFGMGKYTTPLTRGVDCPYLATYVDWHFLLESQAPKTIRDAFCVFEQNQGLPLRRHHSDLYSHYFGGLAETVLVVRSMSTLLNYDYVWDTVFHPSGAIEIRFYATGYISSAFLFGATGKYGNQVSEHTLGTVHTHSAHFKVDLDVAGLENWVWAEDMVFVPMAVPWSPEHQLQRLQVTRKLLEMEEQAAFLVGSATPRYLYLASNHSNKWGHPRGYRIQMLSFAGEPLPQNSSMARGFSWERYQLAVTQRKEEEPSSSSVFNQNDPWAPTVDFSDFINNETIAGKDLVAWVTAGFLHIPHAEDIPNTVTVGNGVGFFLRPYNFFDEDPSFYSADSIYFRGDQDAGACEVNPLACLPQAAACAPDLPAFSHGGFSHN

Row | SMILES | IC50 [1] [nM] | IC50 [2] [nM] | Inhibition Ratio (%) 1 h [3] [%] | Inhibition Ratio (%) 3 h [3] [%] | Inhibition Ratio (%) 6 h [3] [%] | Inhibition Ratio (%) 24 h [3] [%] | urinary albumin excretion relative to that of the control group [4] [times] | amount of urinary albumin excretion [4] [mg/gCr] | Inhibition Ratio (%) 12 h [3] [%]
1 | Cn1cc(OC2CN(c3cccc(COC(=O)NC(=N)N)c3F)C2)ccc1=O [Example 557] | 11 | 1.6 | 53 | 71 | 56 | 22 | 2.3 | 105 | –
2 | CC(=O)N1CCC(COc2ncc(-c3cccc(COC(=O)NC(=N)N)c3F)cn2)CC1 [Example 11] | 5.2 | 2.2 | 64 | 70 | 63 | 12 | 1.5 | 103 | –
3 | N=C(N)NC(=O)OCc1cccc(-c2cnc(OCC3CCN(C(=O)c4cccnc4)CC3)nc2)c1F [Example 29] | 7.2 | 1.9 | 46 | 60 | 58 | 22 | – | – | –
4 | COCCOc1cc(N2CCN(c3cccc(COC(=O)NC(=N)N)c3F)CC2)ccn1 [Example 565] | 19 | 2.5 | 77 | 83 | 71 | 47 | – | – | –
5 | COCc1cncc(N2CCN(c3cccc(COC(=O)NC(=N)N)c3F)CC2)c1 [Example 558] | 23 | 1.2 | 84 | 87 | 81 | 62 | – | – | –
6 | N=C(N)NC(=O)OCc1cccc(-c2cnc(N3CCN(c4ccc(CCC(=O)O)cc4)CC3)nc2)c1F [Example 335] | 11 | 2 | 82 | 84 | 86 | – | – | – | 83
7 | N=C(N)NC(=O)OCc1cccc(N2CCN(c3cccnc3)C(=O)C2)c1F [Example 304] | 34 | 6.6 | 52 | 56 | 56 | 18 | – | – | –
8 | COC1CN(c2ncc(-c3cccc(COC(=O)NC(=N)N)c3F)cn2)C1 [Example 63] | 3.4 | 1.1 | 83 | 87 | 80 | – | – | – | 68
